Laboratory results: patent US11999727B2 (Tango Therapeutics, Inc., priority 2020, dated 2024)

Columns and labels:
PRMT5 [1] = molecular target: T1, PRMT5 (Homo sapiens, UniProt O14744); test: PRMT5 biochemical IC50 assay with no cofactor; details: PRMT5, no cofactor; read-out: No Cofactor/rel IC50
T1 construct: purchased Viva (custom protein)
Text: Table 1 indicates IC50 values (μM) against PRMT5 for exemplary compounds in the presence of SAM as cofactor, with no cofactor, and with MTA as cofactor, respectively (columns 4-6). […] Ki values can be calculated from the IC50 values as described in the Examples section. As detailed in the Examples section, for the assay performed in the presence of SAM, IC50=Ki×1.5 (Ki=IC50/1.5).

PRMT5 [2] = molecular target: T1, PRMT5; test: PRMT5 biochemical IC50 assay with MTA as cofactor; details: PRMT5, MTA as cofactor; read-out: MTA IC50
PRMT5 [3] = molecular target: T1, PRMT5; test: PRMT5 biochemical IC50 assay with SAM as cofactor; details: PRMT5, SAM as cofactor; read-out: SAM IC50
[4] = test system: HAP1 MTAP-deleted cell line; test: SDMA in-cell western assay, HAP1 MTAP-deleted; type: cell-based; details: for IC50: Homo sapiens, HAP1, SDMA in-cell western, HAP1 MTAP-deleted; for MTAP intact/deleted ratio: IC50 ratio HAP1 MTAP-intact / HAP1 MTAP-deleted, SDMA in-cell western
In short: (§1)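 Readout: in-cell western detection of SDMA. Cells: HAP1 expressing endogenous MTAP and an MTAP-null HAP1 counterpart. Output: IC50.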

[5] = test system: HAP1 MTAP-intact cell line; test: SDMA in-cell western assay, HAP1 MTAP-intact; type: cell-based; details: Homo sapiens, HAP1, SDMA in-cell western, HAP1 MTAP-intact; read-out: MTAP HAP1 intact IC50
In short: as §1

[6] = test system: HAP1 MTAP-deleted cell line; test: Viability assay, MTAP-deleted cell line; type: cell-based; details: Homo sapiens, HAP1, viability assay, read-out: HAP1 MTAP deleted viability
Text: Table 1 additionally indicates IC50 values in a viability assay for the MTAP-deleted cell line (column 10), indicating the effect of treatment with compound on cell survival.

[7] = read-out: HAP1 MTAP deleted IC50
[8] = read-out: HAP 1 MTAP deleted IC50

T1 sequence (O14744 whole entry): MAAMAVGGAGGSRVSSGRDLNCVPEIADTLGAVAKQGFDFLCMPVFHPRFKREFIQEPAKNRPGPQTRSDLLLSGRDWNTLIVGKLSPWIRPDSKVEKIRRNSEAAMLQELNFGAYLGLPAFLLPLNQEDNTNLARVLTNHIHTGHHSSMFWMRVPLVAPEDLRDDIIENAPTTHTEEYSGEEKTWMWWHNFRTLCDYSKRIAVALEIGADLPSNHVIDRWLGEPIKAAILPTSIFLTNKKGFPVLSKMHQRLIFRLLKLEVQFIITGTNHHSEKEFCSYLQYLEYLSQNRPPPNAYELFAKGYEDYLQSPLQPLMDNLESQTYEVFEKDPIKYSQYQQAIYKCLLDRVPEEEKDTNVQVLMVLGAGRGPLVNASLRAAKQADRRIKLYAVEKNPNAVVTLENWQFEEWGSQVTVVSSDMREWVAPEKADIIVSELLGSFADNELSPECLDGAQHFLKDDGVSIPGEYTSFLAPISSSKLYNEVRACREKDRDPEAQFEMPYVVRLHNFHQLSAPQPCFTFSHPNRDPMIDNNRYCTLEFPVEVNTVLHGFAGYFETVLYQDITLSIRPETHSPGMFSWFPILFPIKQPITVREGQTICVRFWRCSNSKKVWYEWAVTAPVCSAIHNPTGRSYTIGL
T1 sequence (Q9BQA1 whole entry partner): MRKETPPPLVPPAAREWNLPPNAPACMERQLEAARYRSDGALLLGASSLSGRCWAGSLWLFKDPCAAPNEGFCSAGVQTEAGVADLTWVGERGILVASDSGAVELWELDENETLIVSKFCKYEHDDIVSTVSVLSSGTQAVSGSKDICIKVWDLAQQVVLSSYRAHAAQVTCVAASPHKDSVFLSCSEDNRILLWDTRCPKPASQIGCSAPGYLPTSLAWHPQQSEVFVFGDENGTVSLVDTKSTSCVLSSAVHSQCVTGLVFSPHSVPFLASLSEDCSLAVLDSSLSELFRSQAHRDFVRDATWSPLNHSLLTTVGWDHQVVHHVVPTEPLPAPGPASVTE

Compound | IC50 (PRMT5 [1]) | IC50 (PRMT5 [2]) | IC50 (PRMT5 [3]) | IC50 [4, 7] | IC50 [5] | IC50 [4, 8] | MTAP intact/deleted ratio [4] | IC50 ([6]; HAP1 MTAP-deleted) | IC50 ([6]; MTAP-deleted cell line)
Cc1cc(NC(=O)C(=O)N2C[C@@H](C)CC[C@@H]2c2ccc(N)nc2)cnc1N (single isomer, unassigned) [Compound 860] | > 0.5 µM | > 0.5 µM | > 0.5 µM | > 1 µM | > 1 µM |  | B (an IC50 ratio greater than or equal to 3 fold but lower than 10 fold) | > 10 µM | 
CNc1nc2cc([C@H]3CC[C@H](C)CN3C(=O)C(=O)Nc3cncc(C(N)=O)c3)ccc2s1 (single isomer, unassigned) [Compound 862] | > 0.5 µM | > 0.5 µM | > 0.5 µM | > 1 µM | > 1 µM |  | B (an IC50 ratio greater than or equal to 3 fold but lower than 10 fold) | > 10 µM | 
CCc1cc(NC(=O)C(=O)N2C[C@H](C)CC[C@H]2c2ccc(NS(C)(=O)=O)cc2)cnc1N (single isomer, unassigned) [Compound 866] | > 0.5 µM | > 0.5 µM | > 0.5 µM | > 1 µM | > 1 µM |  | C (an IC50 ratio of less than 3 fold) | > 10 µM | 
C[C@@H]1CC[C@@H](c2cc3[nH]ncc3s2)N(C(=O)C(=O)Nc2cncc(C(N)=O)c2)C1 (single isomer, unassigned) [Compound 868, 5-(2-(5-methyl-2-(1H-thieno[3,2-c]pyrazol-5-yl)piperidin-1-yl)-2-oxoacetamido)nicotinamide] | > 0.5 µM | > 0.5 µM | > 0.5 µM | > 1 µM | > 1 µM |  | C (an IC50 ratio of less than 3 fold) | > 10 µM | 
Cc1ncc(NC(=O)C(=O)N2C[C@H](C)CC[C@H]2c2ccc3c(c2)CCC(=O)N3)cc1C(F)F (single isomer, unassigned) [Compound 874] | 0.05 to 0.5 µM | < 0.05 µM | 0.05 to 0.5 µM | < 0.1 µM | 0.1 to 1 µM |  | A (an IC50 ratio greater than or equal to 10 fold) | < 1 µM | 
CNc1nc2cc([C@@H]3CC[C@@H](C)CN3C(=O)C(=O)Nc3cnc(OC)c(C(N)=O)c3)ccc2s1 (single isomer, unassigned) [Compound 875] | > 0.5 µM | > 0.5 µM | > 0.5 µM | > 1 µM | > 1 µM |  | B (an IC50 ratio greater than or equal to 3 fold but lower than 10 fold) | > 10 µM | 
CNc1ccc([C@H]2CC[C@H](C)CN2C(=O)C(=O)Nc2cnc(N)c(C)c2)cn1 (single isomer, unassigned) [Compound 876] | > 0.5 µM | > 0.5 µM | > 0.5 µM | > 1 µM | > 1 µM |  | B (an IC50 ratio greater than or equal to 3 fold but lower than 10 fold) | > 10 µM | 
CNc1nc2cc([C@@H]3CC[C@@H](C)CN3C(=O)C(=O)Nc3cncc(C(N)=O)c3)ccc2s1 (single isomer, unassigned) [Compound 877] | 0.05 to 0.5 µM | < 0.05 µM | 0.05 to 0.5 µM | < 0.1 µM | > 1 µM |  | A (an IC50 ratio greater than or equal to 10 fold) | < 1 µM | 
CCc1cc(NC(=O)C(=O)N2C[C@@H](C)CC[C@@H]2c2ccc(NC)nc2)cnc1N (single isomer, unassigned) [Compound 878] | > 0.5 µM | > 0.5 µM | > 0.5 µM | > 1 µM | > 1 µM |  | C (an IC50 ratio of less than 3 fold) | > 10 µM | 
COc1ncc(NC(=O)C(=O)N2C[C@@H](C)CC[C@@H]2c2ccn(-c3cc[nH]n3)n2)cc1C(N)=O (single isomer, unassigned) [Compound 881] | > 0.5 µM | > 0.5 µM | > 0.5 µM | > 1 µM | > 1 µM |  | B (an IC50 ratio greater than or equal to 3 fold but lower than 10 fold) | > 10 µM | 
C[C@H]1CC[C@H](c2ccn(-c3cc[nH]n3)n2)N(C(=O)C(=O)Nc2cncc(C(N)=O)c2)C1 (single isomer, unassigned) [Compound 882] | > 0.5 µM | > 0.5 µM | > 0.5 µM | > 1 µM | > 1 µM |  | C (an IC50 ratio of less than 3 fold) | > 10 µM | 
C[C@@H]1CC[C@@H](c2cccc3[nH]ncc23)N(C(=O)C(=O)Nc2cncc(C(N)=O)c2)C1 (single isomer, unassigned) [Compound 883] | > 0.5 µM | > 0.5 µM | > 0.5 µM | > 1 µM | > 1 µM |  | C (an IC50 ratio of less than 3 fold) | > 10 µM | 
Cc1cc(NC(=O)C(=O)N2C[C@@H](C)CC[C@@H]2c2ccc(-c3cncs3)cc2)cnc1N (single isomer, unassigned) [Compound 887, N-(6-amino-5-methylpyridin-3-yl)-2-(5-methyl-2-(4-(thiazol-5-yl)phenyl)piperidin-1-yl)-2-oxoacetamide] | 0.05 to 0.5 µM | < 0.05 µM | 0.05 to 0.5 µM |  | < 0.1 µM | < 0.1 µM | B (an IC50 ratio greater than or equal to 3 fold but lower than 10 fold) |  | < 1 µM
CCc1cc(NC(=O)C(=O)N2C[C@H](C)CC[C@H]2c2ccc(NC(C)=O)cc2)cnc1N (single isomer, unassigned) [Compound 893] | > 0.5 µM | > 0.5 µM | > 0.5 µM |  | > 1 µM | > 1 µM | B (an IC50 ratio greater than or equal to 3 fold but lower than 10 fold) |  | > 10 µM

Second part, led by results:

IC50 (PRMT5 [1]) | IC50 (PRMT5 [2]) | IC50 (PRMT5 [3]) | IC50 [4, 7] | IC50 [5] | IC50 [4, 8] | Compound | MTAP intact/deleted ratio [4] | IC50 ([6]; HAP1 MTAP-deleted) | IC50 ([6]; MTAP-deleted cell line)
< 0.05 µM | < 0.05 µM | 0.05 to 0.5 µM | < 0.1 µM | 0.1 to 1 µM |  | CNC(=O)c1ccc([C@H]2CC[C@H](C)CN2C(=O)C(=O)Nc2cnc(N)c(C)c2)s1 (single isomer, unassigned) [Compound 859] | A (an IC50 ratio greater than or equal to 10 fold) | < 1 µM | 
< 0.05 µM | < 0.05 µM | 0.05 to 0.5 µM | < 0.1 µM | > 1 µM |  | CNc1nc2cc([C@H]3CC[C@H](C)CN3C(=O)C(=O)Nc3cnc(OC)c(C(N)=O)c3)ccc2s1 (single isomer, unassigned) [Compound 863] | A (an IC50 ratio greater than or equal to 10 fold) | < 1 µM | 
< 0.05 µM | < 0.05 µM | 0.05 to 0.5 µM | < 0.1 µM | 0.1 to 1 µM |  | CNc1ccc([C@@H]2CC[C@@H](C)CN2C(=O)C(=O)Nc2cnc(N)c(C)c2)cn1 (single isomer, unassigned) [Compound 864] | B (an IC50 ratio greater than or equal to 3 fold but lower than 10 fold) | < 1 µM | 
< 0.05 µM | < 0.05 µM | 0.05 to 0.5 µM | < 0.1 µM | 0.1 to 1 µM |  | CCc1cc(NC(=O)C(=O)N2C[C@H](C)CC[C@H]2c2ccc(NC)nc2)cnc1N (single isomer, unassigned) [Compound 865] | A (an IC50 ratio greater than or equal to 10 fold) | < 1 µM | 
0.05 to 0.5 µM | < 0.05 µM | 0.05 to 0.5 µM | < 0.1 µM | > 1 µM |  | C[C@H]1CC[C@H](c2cc3[nH]ncc3s2)N(C(=O)C(=O)Nc2cncc(C(N)=O)c2)C1 (single isomer, unassigned) [Compound 873, 5-(2-(5-methyl-2-(1H-thieno[3,2-c]pyrazol-5-yl)piperidin-1-yl)-2-oxoacetamido)nicotinamide] | A (an IC50 ratio greater than or equal to 10 fold) | < 1 µM | 
< 0.05 µM | < 0.05 µM | 0.05 to 0.5 µM |  | 0.1 to 1 µM | < 0.1 µM | CCc1cc(NC(=O)C(=O)N2C[C@@H](C)CC[C@@H]2c2ccc3sc(NC)nc3c2)cnc1N (single isomer, unassigned) [Compound 884] | A (an IC50 ratio greater than or equal to 10 fold) |  | < 1 µM
< 0.05 µM | < 0.05 µM | 0.05 to 0.5 µM |  | 0.1 to 1 µM | < 0.1 µM | CCc1cc(NC(=O)C(=O)N2C[C@@H](C)CC[C@@H]2c2ccc(NC(C)=O)cc2)cnc1N (single isomer, unassigned) [Compound 890] | A (an IC50 ratio greater than or equal to 10 fold) |  | < 1 µM
